The target in the data set is ATP-dependent translocase ABCB1 (Mus musculus, UniProt P21447). As to the kind of experiment: TP_TRANSPORTER: increase in brain concentration in mdr1a(-/-) mouse. In kind it is functional, organism-based. Conditions: in vivo.
Sequence of ATP-dependent translocase ABCB1 (P21447 whole entry): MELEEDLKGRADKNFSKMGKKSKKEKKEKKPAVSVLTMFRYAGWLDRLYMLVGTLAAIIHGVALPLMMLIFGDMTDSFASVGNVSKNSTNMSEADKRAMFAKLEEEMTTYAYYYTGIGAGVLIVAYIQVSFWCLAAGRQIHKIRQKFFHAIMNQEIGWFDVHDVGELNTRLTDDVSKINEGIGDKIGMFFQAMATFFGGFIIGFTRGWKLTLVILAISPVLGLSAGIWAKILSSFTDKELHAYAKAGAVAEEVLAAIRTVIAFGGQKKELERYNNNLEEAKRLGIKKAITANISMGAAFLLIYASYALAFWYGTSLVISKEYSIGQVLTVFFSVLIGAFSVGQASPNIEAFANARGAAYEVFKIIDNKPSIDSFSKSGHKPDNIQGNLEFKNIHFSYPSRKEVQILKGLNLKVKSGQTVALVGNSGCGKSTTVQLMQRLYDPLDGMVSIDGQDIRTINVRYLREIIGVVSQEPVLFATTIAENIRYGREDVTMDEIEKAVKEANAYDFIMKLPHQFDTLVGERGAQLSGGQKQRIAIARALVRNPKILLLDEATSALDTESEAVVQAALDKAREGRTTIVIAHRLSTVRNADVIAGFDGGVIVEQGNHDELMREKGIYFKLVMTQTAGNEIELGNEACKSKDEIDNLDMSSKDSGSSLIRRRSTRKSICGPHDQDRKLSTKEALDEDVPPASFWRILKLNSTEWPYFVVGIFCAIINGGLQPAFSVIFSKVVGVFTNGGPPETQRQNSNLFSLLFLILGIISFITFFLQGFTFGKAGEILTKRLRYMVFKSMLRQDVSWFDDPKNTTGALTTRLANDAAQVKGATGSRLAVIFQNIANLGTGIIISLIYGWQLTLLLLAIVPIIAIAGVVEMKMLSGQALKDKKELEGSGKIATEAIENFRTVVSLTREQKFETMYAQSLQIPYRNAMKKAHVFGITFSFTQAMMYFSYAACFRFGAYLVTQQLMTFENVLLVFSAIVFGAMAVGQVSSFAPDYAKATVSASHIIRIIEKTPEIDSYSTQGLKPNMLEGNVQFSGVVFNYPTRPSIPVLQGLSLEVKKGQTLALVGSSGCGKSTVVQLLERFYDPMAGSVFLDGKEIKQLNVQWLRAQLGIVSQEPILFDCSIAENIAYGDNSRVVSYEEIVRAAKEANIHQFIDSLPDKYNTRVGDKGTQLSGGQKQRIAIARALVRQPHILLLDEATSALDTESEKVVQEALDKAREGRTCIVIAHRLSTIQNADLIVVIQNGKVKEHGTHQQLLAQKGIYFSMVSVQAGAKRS

Consider `CN(C)CCC=C1c2ccccc2CCc2ccccc21` [AMITRIPTYLINE], for which the Activity entry is “substrate [+]”.
The same measure for `CNCCC=C1c2ccccc2CCc2ccccc21` [NORTRIPTYLINE]: “substrate [+]”.

The record behind these values is ChEMBL document CHEMBL2074214, “Penetration of amitriptyline, but not of fluoxetine, into brain is enhanced in mice with blood-brain barrier deficiency due to mdr1a P-glycoprotein gene disruption” (Neuropsychopharmacology, 2000).
